These results are taken from patent publication US8946439B2, “Amide compounds, compositions and uses thereof” (Evotec AG, priority 2008, dated 2015).

Structures are written as SMILES. Bounds are passed on as bounds.

Test [1] addresses T1, hP2X2/3H (Homo sapiens, UniProt P56373+Q9UBL9).
T1 construct: expressed in transfected cells; host or cells: e.g. HEK293 or 1321N1
T1 sequence (Q9UBL9 1-471): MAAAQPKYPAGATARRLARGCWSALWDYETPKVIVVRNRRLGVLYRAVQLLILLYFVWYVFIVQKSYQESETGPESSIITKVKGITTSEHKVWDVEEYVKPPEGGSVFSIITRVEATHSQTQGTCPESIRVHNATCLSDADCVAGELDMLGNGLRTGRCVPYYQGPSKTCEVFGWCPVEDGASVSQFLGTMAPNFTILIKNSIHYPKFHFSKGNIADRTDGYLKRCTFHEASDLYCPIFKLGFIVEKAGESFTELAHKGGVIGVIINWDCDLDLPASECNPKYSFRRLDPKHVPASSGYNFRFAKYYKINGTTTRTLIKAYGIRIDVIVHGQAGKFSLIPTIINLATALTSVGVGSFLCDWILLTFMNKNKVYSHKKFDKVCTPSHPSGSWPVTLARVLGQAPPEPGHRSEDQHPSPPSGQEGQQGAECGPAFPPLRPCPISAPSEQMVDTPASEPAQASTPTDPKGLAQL
T1 sequence (P56373 1-397): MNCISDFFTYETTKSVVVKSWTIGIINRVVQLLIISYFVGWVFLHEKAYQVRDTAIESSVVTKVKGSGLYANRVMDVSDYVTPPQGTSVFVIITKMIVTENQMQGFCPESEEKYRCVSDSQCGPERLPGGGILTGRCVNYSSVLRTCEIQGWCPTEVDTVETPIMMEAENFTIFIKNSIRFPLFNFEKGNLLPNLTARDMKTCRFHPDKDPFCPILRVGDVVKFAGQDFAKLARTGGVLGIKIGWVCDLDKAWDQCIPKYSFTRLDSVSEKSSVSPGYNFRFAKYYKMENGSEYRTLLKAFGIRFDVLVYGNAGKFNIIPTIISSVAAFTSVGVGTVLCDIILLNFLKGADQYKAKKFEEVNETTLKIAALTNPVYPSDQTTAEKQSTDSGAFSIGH
The test can be described thus: Calcium uptake assay (P2X antagonist assay), P2X2/3 heteromer. Type of test: cell-based. The note with it: Ca influx (calcium uptake assay), hP2X2/3H; read-out: IC50 hP2X2/3H. The essentials: (§1)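 Stably or transiently transfected HEK293 or 1321N1 cells; the heteromer is made by adding P2X3 to a P2X2-stable line, with heteromer function isolated pharmacologically. The peak-minus-baseline FLIPR calcium signal gives % inhibition and a 4-parameter-logistic IC50.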

The target in test [2] is T2, hP2X3 (Homo sapiens, UniProt P56373).
T2 construct: expressed in transfected cells; host or cells: e.g. HEK293 or 1321N1
T2 sequence (P56373 1-397): T1 sequence (P56373 1-397)
The test is described as follows: Calcium uptake assay (P2X antagonist assay), P2X3 homomer. The test is classed as cell-based. The note with it: Ca influx (calcium uptake assay), hP2X3; read-out: IC50 hP2X3. The essentials:
as §1

On to `Cc1ccc(-c2cc(C(=O)NCc3ccc(C)[n+]([O-])c3)cc(S(C)(=O)=O)c2)cc1` [Compound 256, 2-Methyl-5-((4′-methyl-5-(methylsulfonyl)biphenyl-3-ylcarboxamido)methyl)pyridine 1-oxide], for which the IC50 in test [1] and in test [2] was less than 100 nM throughout.
For the compound `Cc1ccc(-c2cc(C(=O)N[C@H](CO)c3ccc(C)nc3)cc(S(C)(=O)=O)c2)cc1` [Compound 257, (S)—N-(2-Hydroxy-1-(6-methylpyridin-3-yl)ethyl)-4′-methyl-5-(methylsulfonyl)biphenyl-3-carboxamide], the IC50 in test [1] and in test [2] was less than 100 nM throughout.
As for `Cc1ccc(-c2cc(Oc3ccccn3)cc(C(=O)N[C@H](C)c3cnc(C)nc3)c2)c(C#N)c1` [Compound 258], the values for the IC50 in test [1] and in test [2] were 100 to 500 nM and less than 100 nM, respectively.
As to `Cc1ccc(-c2cc(Oc3ccccn3)cc(C(=O)N[C@H](C)c3ccc(C)nc3)c2)c(C#N)c1` [Compound 259], the IC50 in test [1] and in test [2] was less than 100 nM each time.
`Cc1ccc(-c2cc(Oc3nccs3)cc(C(=O)NCc3ccc(C)nc3)c2)c(C#N)c1` [Compound 260]: the IC50 in test [1] was 100 to 500 nM; in test [2], less than 100 nM.
Taken in the same sequence, the figures for `Cc1ccc(-c2cc(Oc3nccs3)cc(C(=O)NCc3cnc(C)nc3)c2)c(C#N)c1` [Compound 261] were 100 to 500 nM and less than 100 nM.
The matching figures for `COCCOc1cc(C(=O)NCc2cnc(C)nc2)cc(-c2ccc(C)cc2C#N)c1` [Compound 262]: 100 to 500 nM and less than 100 nM.
The matching figures for `COCCOc1cc(C(=O)NCc2ccc(C)nc2)cc(-c2ccc(C)cc2C#N)c1` [Compound 263]: 100 to 500 nM and less than 100 nM.
As for `Cc1ccc(-c2cc(Oc3nccs3)cc(C(=O)N[C@H](C)c3ccc(C)nc3)c2)nc1` [Compound 264, (R)-3-(5-Methylpyridin-2-yl)-N-(1-(6-methylpyridin-3-yl)ethyl)-5-(thiazol-2-yloxy)benzamide], the IC50 in test [1] and in test [2] was less than 100 nM throughout.
Consider `COCCOc1cc(C(=O)N[C@H](C)c2ccc(C)nc2)cc(-c2ccc(C)cn2)c1` [Compound 265], for which the IC50 in test [1] is 100 to 500 nM; in test [2], less than 100 nM.
Take `COCCOc1cc(C(=O)N[C@H](C)c2cnc(C)nc2)cc(-c2ccc(C)cn2)c1` [Compound 266]: the IC50 in test [1] was 100 to 500 nM; in test [2], less than 100 nM.
Regarding `Cc1ccc(-c2cc(C(=O)NCc3cnc(C)nc3)cc(C(O)c3ccccn3)c2)cc1` (stereo not drawn) [Compound 267], the IC50 in test [1] and in test [2] was less than 100 nM each time.
For the compound `Cc1ccc(-c2cc(C(=O)N[C@H](C)c3cnc(C)nc3)cc(C(O)c3ccccn3)c2)cc1` (stereo partly drawn) [Compound 268], the IC50 in test [1] and in test [2] was less than 100 nM each time.
As to `Cc1ccc(-c2cc(Oc3nccs3)cc(C(=O)N[C@H](C)c3cnc(C)nc3)c2)nc1` [Compound 269, (R)-3-(5-Methylpyridin-2-yl)-N-(1-(2-methylpyrimidin-5-yl)ethyl)-5-(thiazol-2-yloxy)benzamide], the IC50 in test [1] and in test [2] was less than 100 nM each time.
Turning to `Cc1ccc(-c2cc(Oc3ccccn3)cc(C(=O)N[C@H](C)c3cnc(C)nc3)c2)nc1` [Compound 270], the IC50 in test [1] and in test [2] was less than 100 nM in each case.
On to `Cc1ccc(-c2cc(Oc3ccccn3)cc(C(=O)N[C@H](C)c3ccc(C)nc3)c2)nc1` [Compound 271], for which the IC50 in test [1] and in test [2] was less than 100 nM in each case.
As to `Cc1ccc(-c2cc(Oc3ncccn3)cc(C(=O)N[C@H](C)c3ccc(C)nc3)c2)nc1` [Compound 272], the IC50 in test [1] is 100 to 500 nM; in test [2], less than 100 nM.
The matching figures for `Cc1ccc(-c2cc(Oc3ncccn3)cc(C(=O)N[C@H](C)c3cnc(C)nc3)c2)nc1` [Compound 273]: 501 to 1000 nM and 100 to 500 nM.
Taken in the same sequence, the figures for `COCc1cc(C(=O)N[C@H](C)c2cnc(C)nc2)cc(-c2ccc(C)cn2)c1` [Compound 274, (R)-3-(Methoxymethyl)-5-(5-methylpyridin-2-yl)-N-(1-(2-methylpyrimidin-5-yl)ethyl)benzamide] were 100 to 500 nM and 100 to 500 nM.
On to `COCc1cc(C(=O)NCc2cnc(C)nc2)cc(-c2ccc(C)cn2)c1` [Compound 275], for which the IC50 in test [1] was 501 to 1000 nM; in test [2], 100 to 500 nM.
Taken in the same sequence, the figures for `Cc1ccc(-c2cc(C(=O)N[C@H](C)c3ccc(C)nc3)cc(C(O)c3ccccc3)c2)nc1` (stereo partly drawn) [Compound 276] were less than 100 nM and less than 100 nM.
For `Cc1ccc(-c2cc(C(=O)N[C@H](C)c3cnc(C)nc3)cc(C(O)c3ccccc3)c2)nc1` (stereo partly drawn) [Compound 277], the IC50 in test [1] and in test [2] was less than 100 nM throughout.
As to `Cc1ccc(-c2cc(C(=O)N[C@H](C)c3cnc(C)nc3)cc(C(O)c3ccccc3)c2)c(C#N)c1` (stereo partly drawn) [Compound 278], the IC50 in test [1] and in test [2] was less than 100 nM throughout.
On to `Cc1ccc(-c2cc(C(=O)N[C@H](C)c3ccc(C)nc3)cc(C(O)c3ccccc3)c2)c(C#N)c1` (stereo partly drawn) [Compound 279], for which the IC50 in test [1] and in test [2] was less than 100 nM throughout.
With `Cc1ccc(-c2cc(C(=O)N[C@H](C)c3ccc(C)nc3)cc(C(O)c3nccs3)c2)cc1` (stereo partly drawn) [Compound 280, 5-(Hydroxy(thiazol-2-yl)methyl)-4′-methyl-N—((R)-1-(6-methylpyridin-3-yl)ethyl)biphenyl-3-carboxamide], the IC50 in test [1] and in test [2] was less than 100 nM in each case.
For the compound `Cc1ccc(-c2cc(C(=O)N[C@@H](C)CO)cc(S(=O)(=O)CC(C)C)c2)cc1` [Compound 281], the IC50 in test [1] was greater than 1000 nM; in test [2] it was less than 100 nM.
The matching figures for `Cc1ccc(-c2cc(C(=O)N[C@@H](C)CO)cc(S(=O)(=O)C3CCCC3)c2)cc1` [Compound 282]: greater than 1000 nM and less than 100 nM.
Taken in the same sequence, the figures for `Cc1ccc(-c2cc(C(=O)N[C@H](C)c3cnc(C)nc3)cc(C(O)c3nccs3)c2)cc1` (stereo partly drawn) [Compound 283] were less than 100 nM and less than 100 nM.
With `Cc1ccc(-c2cc(C(=O)N[C@H](C)c3ccc(C)nc3)cc(C(O)c3ccccn3)c2)c(C#N)c1` (stereo partly drawn) [Compound 284], the IC50 in test [1] and in test [2] was less than 100 nM in each case.
In the case of `Cc1ccc(-c2cc(C(=O)N[C@H](C)c3cnc(C)nc3)cc(C(O)c3ccccn3)c2)c(C#N)c1` (stereo partly drawn) [Compound 285], the IC50 in test [1] and in test [2] was less than 100 nM each time.
Consider `Cc1ccc(-c2cc(C(=O)N[C@H](C)c3cnc(C)nc3)cc(C(O)c3ccccn3)c2)nc1` (stereo partly drawn) [Compound 286], for which the IC50 in test [1] and in test [2] was less than 100 nM each time.
On to `Cc1ccc(-c2cc(C(=O)N[C@H](C)c3ccc(C)nc3)cc(C(O)c3ccccn3)c2)nc1` (stereo partly drawn) [Compound 287], for which the IC50 in test [1] and in test [2] was less than 100 nM in each case.
As to `Cc1ccc(-c2cc(C(=O)N[C@@H](C)CO)cc(S(=O)(=O)C(C)C)c2)cc1` [Compound 288], the IC50 in test [1] was greater than 1000 nM; in test [2], less than 100 nM.
Regarding `Cc1ccc(-c2cc(C(=O)N[C@H](C)c3ccc(C)nc3)cc(C(O)CO)c2)cc1` (stereo partly drawn) [Compound 289], the IC50 in test [1] and in test [2] was less than 100 nM each time.
Consider `Cc1ccc(-c2cc(CO)cc(C(=O)N[C@H](C)c3ccc(C)nc3)c2)c(C#N)c1` [Compound 290, (R)-2′-Cyano-5-(hydroxymethyl)-4′-methyl-N-(1-(6-methylpyridin-3-yl)ethyl)biphenyl-3-carboxamide], for which the IC50 in test [1] and in test [2] was less than 100 nM throughout.
As for `Cc1ccc(-c2cc(C(=O)N[C@H](C)c3ccc(C)nc3)cc(C(O)c3nccs3)c2)nc1` (stereo partly drawn) [Compound 291], the IC50 in test [1] and in test [2] was less than 100 nM each time.
With `Cc1ccc(-c2cc(C(=O)N[C@H](C)c3cnc(C)nc3)cc(C(O)c3nccs3)c2)nc1` (stereo partly drawn) [Compound 292], the IC50 in test [1] and in test [2] was less than 100 nM throughout.
As for `Cc1ccc(-c2cc(C(=O)N[C@H](C)c3cnc(C)nc3)cc(C(O)c3nccs3)c2)c(C#N)c1` (stereo partly drawn) [Compound 293], the IC50 in test [1] and in test [2] was less than 100 nM in each case.
On to `Cc1ccc(-c2cc(C(=O)N[C@H](C)c3ccc(C)nc3)cc(C(O)c3nccs3)c2)c(C#N)c1` (stereo partly drawn) [Compound 294], for which the IC50 in test [1] and in test [2] was less than 100 nM each time.
